Reference: patent US10196411B2, “Tizoxanide phosphate and alkane sulfonate and pharmaceutical applications thereof” (priority 2014, dated 2019)
In brackets after ≈: the same amount, converted by molar mass. Structures can show the parent of a compound that is named as a salt. Where two headings read alike, the source gives them in different places.

Key:
[1] = Pharmacokinetic evaluation of oral administration in mice (tizoxanide in blood by LC/MS/MS); type: in vivo, ICR mice; details: in words; for conversion to the active form tizoxanide in vivo: after oral administration in mice; for Area Under concentration-time Curve (AUC) compared to nitazoxanide: oral administration in mice
Procedure: Sample preparation: 32.57 μmol of a test compound was dissolved in 100 μL dimethyl sulfoxide (DMSO), with the addition of 10 mL 0.5% Carboxyl Methyl Cellulose Sodium (CMC-Na) solution, to prepare a sample at 3.257 μmol/mL.
The test compounds refer to the compounds prepared in Examples of the invention and the positive control compound nitazoxanide. The experiment was carried out in two batches, wherein the first hatch of test compounds were Compound 1, 2, 6, 7, 8, 9 and the positive control compound nitazoxanide; and the second batch of test compounds were Compound 3, 4, 5, 12, 14, 17, 18 and positive control compound nitazoxanide.
Experimental method: ICR mice (SPS grade, male, […]), purchased from Beijing Vital River Laboratory Animal Technology Co., Ltd., were grouped randomly depending on body weight, 3 mice for each group. Nitazoxanide and a test compound were intragastrically administered separately to each mouse at a dose of 10 mL/kg (i.e., 32.57 μmol/kg of corresponding drug to each mouse), wherein nitazoxanide was used as positive control, and 0.1 ml blood was taken from veins of Fundus Oculi at 0.08, 0.25, 0.5, 1, 2, 4, 6, 8 and 12 h after administration, placed in a Heparin Sodium-containing centrifuge tube, and centrifuged for 20 min (at a relative centrifugal force (RCF) of 3000 g). The plasma was taken and stored in a −20° C. refrigerator for further detection.
During the detection, 50 μL plasma was taken, with the addition of an internal standard solution (5000 ng/mL glipizide aqueous solution, 10 μL), and the addition of acetonitrile (200 μL), and then mixed well. The mixture was vortexed for 3 min, and centrifuged for 10 min (at a relative centrifugal force (RCF) of 8500 g). The supernatant (50 μL) was well mixed with water (50 μL), and 10 μL was drawn for LC/MS/MS analysis, so as to detect the blood concentration of tizoxanide. The results are shown in Table 1, Table 2, Table 3, Table 4, FIG. 1, and FIG. 2.

Helicobacter pylori = details: 103 strains of Helicobacter pylori; cited from earlier work
[2] = in vivo, cited from earlier work
PR8 influenza virus = PR8 influenza virus in MDCK cells; cited from earlier work
[3] = Pharmacokinetic evaluation of oral administration and intravenous injection in rats; type: in vivo, SD rats; details: for MRT last: read-out: MRT(0-t)
Procedure: 9 SD rats (SPF grade, male, 200±10 g), provided by Laboratory Animal Center of the Academy of Military Medical Sciences, were grouped randomly, 3 […] for each group.
[…]; The plasma was separated and stored in a −20° C. refrigerator for further detection.
(2) Oral administration group of Compound 3, a dose of 15 mg/kg (equivalent to a dose of 41 μmol/kg tizoxanide); […]; The plasma was separated and stored in a −20° C. refrigerator for further detection.
(3) Oral administration group of nitazoxanide: a dose of 12.5 mg/kg (equivalent to a dose of 41 μmol/kg tizoxanide); administration volume: 2 mL/200 g rat (preparation of a test solution: 10.96 mg nitazoxanide was weighed accurately and dissolved by adding 600 μL DMSO, and […] sterile water was added to prepare a clear solution at 1.25 mg/mL); after oral administration of nitazoxanide at 12.5 mg/kg in rats, blood was taken before administration and at 0.08, 0.25, 0.5, 1, 2, 4, 6, 8, 12 and 24 h after administration. The plasma was separated and stored in a −20° C. refrigerator for further detection.
Treatment of plasma sample: 100 μL plasma was taken, 300 μL acetonitrile solution containing internal standard (500 nmol/L a solution of tolbutamide in acetonitrile) was added, and then mixed well. The mixture was vortexed for 1 min, and centrifuged at 4° C. for 10 min (at a relative centrifugal force (RCF) of 14000 g). The supernatant was taken, and 20 μL was drawn for LC/MS/MS analysis, so as to detect the blood concentration of tizoxanide and the prototype drug.

[4] = test system: Mycobacterium tuberculosis; details: cited from earlier work
[5] = in words
[6] = Compound 3 in plasma, rats, intravenous injection of Compound 3 (5 mg/kg)
[7] = Compound 3 in plasma, rats, oral administration of Compound 3 (15 mg/kg)
[8] = male, SD, rat, in vivo, Compound 3 in plasma, rats, intravenous injection of Compound 3 (5 mg/kg)
[9] = male, SD, rat, in vivo, Compound 3 in plasma, rats, oral administration of Compound 3 (15 mg/kg)
[10] = male, SD, rat, in vivo, rats, intravenous injection of Compound 3 (5 mg/kg), read-out: plasma concentration of Compound 3
[11] = male, SD, rat, in vivo, rats, oral administration of Compound 3 (15 mg/kg), read-out: plasma concentration of Compound 3

With `CS(=O)(=O)Oc1ccccc1C(=O)Nc1ncc([N+](=O)[O-])s1` [Compound 6, 2-(5-nitrothiazol-2-yl-carbamoyl)phenyl methanesulfonate] the “conversion to the active form tizoxanide in vivo” value (from here on “conversion … in vivo”) [1] was “relatively complete”, the “Area Under concentration-time Curve (AUC) compared to nitazoxanide” value [1] was “much higher” and the melting point was 188 to 190 °C.

With `CC(C)(C)OC(=O)NCCS(=O)(=O)Oc1ccccc1C(=O)Nc1ncc([N+](=O)[O-])s1` the melting point was 164 to 166 °C.

With `COP(=O)(OC)Oc1ccccc1C(=O)Nc1ncc([N+](=O)[O-])s1` [Compound 17, dimethyl 2-(5-nitrothiazol-2-yl-carbamoyl)phenyl phosphate] the “conversion … in vivo” value [1] was “relatively complete” and the “Area Under concentration-time Curve (AUC) compared to nitazoxanide” value [1] was “obviously higher”.

For `NCCS(=O)(=O)Oc1ccccc1C(=O)Nc1ncc([N+](=O)[O-])s1` [Compound 12, 2-(5-nitrothiazol-2-yl-carbamoyl)phenyl taurate hydrochloride], the “conversion … in vivo” value [1] was “relatively complete” and the “Area Under concentration-time Curve (AUC) compared to nitazoxanide” value [1] was “much higher”.

In the case of `O=C(Nc1ncc([N+](=O)[O-])s1)c1ccccc1OP(=O)(O)O` [Compound 2, 2-(5-nitrothiazol-2-yl-carbamoyl)phenyl dihydrogen phosphate], the “conversion … in vivo” value [1] is reported as “relatively complete” and the melting point is reported as 224 to 226 °C.

For `O=C(Nc1ncc([N+](=O)[O-])s1)c1ccccc1O` [tizoxanide], the “50% minimal inhibitory concentration (MIC50)” value (Helicobacter pylori) is listed as 1 µg/mL and the “90% minimal inhibitory concentration (MIC90)” value (Helicobacter pylori) is listed as 4 µg/mL.

For `CC(=O)Oc1ccccc1C(=O)Nc1ncc([N+](=O)[O-])s1` [nitazoxanide, 2-acetoxy-N-(5-nitro-2-thiazolyl)benzamide], the “detection of nitazoxanide in plasma, urine, bile and feces” value ([2]; po) is given as “not detectable”, the “fraction of the oral dose excreted by feces” value [2] is given as “about ⅔” and the “fraction of the oral dose excreted by urine” value [2] is given as “about ⅓”. The EC50 (PR8 influenza virus) was 1 µg/mL (≈ 3.25 µM), the EC90 (PR8 influenza virus) was 7 µg/mL (≈ 22.8 µM) and the Vz/F ([3]; male, SD, rat, in vivo, po, 12.5 mg/kg) was 32.67 ± 16.81 L/kg. For the same compound, the “50% minimal inhibitory concentration (MIC50)” value (Helicobacter pylori) was 1 µg/mL, the “90% minimal inhibitory concentration (MIC90)” value (Helicobacter pylori) was 4 µg/mL and the “minimal inhibitory concentration (MIC), median value” [4] was 16 µg/mL (≈ 52.1 µM).

With `O=C(Nc1ncc([N+](=O)[O-])s1)c1ccccc1OP(=O)(O)O` [Compound 5, 2-(5-nitrothiazol-2-yl-carbamoyl)phenyl phosphate calcium salt] the “solubility compared to nitazoxanide” value [5] was “much better”.

With `CCCCS(=O)(=O)Oc1ccccc1C(=O)Nc1ncc([N+](=O)[O-])s1` [Compound 9, 2-(5-nitrothiazol-2-yl-carbamoyl)phenyl 1-butanesulfonate] the “conversion … in vivo” value [1] was “relatively complete”, the “Area Under concentration-time Curve (AUC) compared to nitazoxanide” value [1] was “much higher” and the melting point was 142 to 144 °C.

Work on `O=C(Nc1ncc([N+](=O)[O-])s1)c1ccccc1OP(=O)(O)O` [Compound 3, 2-(5-nitrothiazol-2-yl-carbamoyl)phenyl hydrogen phosphate monosodium salt] yielded a CLz/F [3, 6] of 17.2 ± 2.83 mL/min/kg, a t1/2z [3, 6] of 28.8 ± 16.8 min and a CLz/F [3, 7] of 1879.8 ± 783.8 mL/min/kg. For the same compound, the F [3, 7] was 2.4%, the t1/2z [3, 7] was 100 ± 100 min and the AUC(0-inf) [3, 8] was 4920 ± 786 ng·h/mL. For the same compound, the AUC(0-t) [3, 8] was 4920 ± 786 ng·h/mL, the Cmax [3, 8] was 26700 ± 6590 ng/mL and the MRT last [3, 8] was 15.6 ± 9 min. It also gave an AUC(0-inf) [3, 9] of 154 ± 76.3 ng·h/mL, an AUC(0-t) [3, 9] of 119 ± 50 ng·h/mL and a Cmax [3, 9] of 100 ± 20 ng/mL. It also gave a Tmax [3, 9] of 15 min, an MRT last [3, 9] of 73.2 ± 49.8 min and a Vd/F ([3]; male, SD, rat, in vivo, Compound 3 in plasma, rats, oral administration of Compound 3 (15 mg/kg), read-out: Vz/F) of 198 ± 118 L/kg. The concentration at 0.03 h [3, 10] was 26700 ± 6590 ng/mL, the concentration at 0.08 h [3, 10] was 13300 ± 1390 ng/mL and the concentration at 0.25 h [3, 10] was 3970 ± 1880 ng/mL. It also gave a concentration at 0.5 h [3, 10] of 1730 ± 1250 ng/mL, a concentration at 1 h [3, 10] of 345 ± 316 ng/mL and a concentration at 2 h ([3]; male, SD, rat, in vivo, rats, intravenous injection of Compound 3 (5 mg/kg), 2 h, read-out: plasma concentration of Compound 3) of 113 ± 83.4 ng/mL. It also gave a concentration at 4 h ([3]; male, SD, rat, in vivo, rats, intravenous injection of Compound 3 (5 mg/kg), 4 h, read-out: plasma concentration of Compound 3) of 13.9 ± 1.9 ng/mL, a concentration at 0.03 h [3, 11] of 55.3 ± 2.1 ng/mL and a concentration at 0.08 h [3, 11] of 99.1 ± 22.1 ng/mL. The concentration at 0.25 h [3, 11] was 71.1 ± 7.3 ng/mL, the concentration at 0.5 h [3, 11] was 33 ± 3.2 ng/mL and the concentration at 1 h [3, 11] was 24.4 ± 1.6 ng/mL. The “conversion to active form tizoxanide” value ([3]; rats, oral administration or intravenous injection, in words) was “quickly converted”.

With `CCOP(=O)(OCC)Oc1ccccc1C(=O)Nc1ncc([N+](=O)[O-])s1` [Compound 18, diethyl 2-(5-nitrothiazol-2-yl-carbamoyl)phenyl phosphate] the “conversion … in vivo” value [1] was “relatively complete” and the “Area Under concentration-time Curve (AUC) compared to nitazoxanide” value [1] was “obviously higher”.

With `O=C(Nc1ncc([N+](=O)[O-])s1)c1ccccc1OP(=O)(OCc1ccccc1)OCc1ccccc1` [Compound 1, dibenzyl 2-(5-nitrothiazol-2-yl-carbamoyl)phenyl phosphate] the “conversion … in vivo” value [1] was “relatively complete”, the “Area Under concentration-time Curve (AUC) compared to nitazoxanide” value [1] was “slightly higher” and the melting point was 122 to 123 °C.

For `CCS(=O)(=O)Oc1ccccc1C(=O)Nc1ncc([N+](=O)[O-])s1` [Compound 7, 2-(5-nitrothiazol-2-yl-carbamoyl)phenyl ethanesulfonate], the “conversion … in vivo” value [1] was “relatively complete”, the “Area Under concentration-time Curve (AUC) compared to nitazoxanide” value [1] was “much higher” and the melting point was 178 to 180 °C.

With `CCCS(=O)(=O)Oc1ccccc1C(=O)Nc1ncc([N+](=O)[O-])s1` [Compound 8, 2-(5-nitrothiazol-2-yl-carbamoyl)phenyl 1-propanesulfonate] the “conversion … in vivo” value [1] was “relatively complete”, the “Area Under concentration-time Curve (AUC) compared to nitazoxanide” value [1] was “much higher” and the melting point was 144 to 146 °C.
